Test results reported in patent publication US20020137929A1, “1 - (3-heterocyclylphenyl) isothiourea, -isourea, -guanidine and -amidine herbicidal agents” (Intellectual Property Department, BASF Aktiengesellschaft, priority 1998, published 2002).

What was measured:
GALAP (Galium) = test: Postemergence herbicidal evaluation; assay type: in vivo, Galium aparine; conditions: postemergence
Method in brief: (§1)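 Visual 0–9 rating versus control (stand, vigor, malformation, size, chlorosis, overall appearance), taken four to five weeks post-spray. Two-week-old seedlings received roughly 0.0156–0.500 kg/ha active in acetone/water (50/50) with 0.5% TWEEN 20 via nozzle at 40 psi.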

[1] = tested on: IPOHE (Morningglory, Ivyleaf); test: Postemergence herbicidal evaluation; assay type: in vivo, Ipomoea hederacea; conditions: postemergence
Method in brief: as §1

SETVI (Foxtail, Green) [2] = test: Postemergence herbicidal evaluation; assay type: in vivo, Setaria viridis; conditions: postemergence
Method in brief: as §1

[3] = tested on: TRZAWR (Wheat, Winter, cv Riband); test: Postemergence herbicidal evaluation; assay type: in vivo, Triticum aestivum; conditions: postemergence
Method in brief: as §1

ABUTH (Velvetleaf) = test: Preemergence herbicidal evaluation; assay type: in vivo, Abutilon theophrasti; conditions: rated 4-5 weeks after treatment
Method in brief: (§2)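 In this greenhouse assay, monocot and dicot seeds are planted in soil and treated prior to emergence with an aqueous acetone spray (about 0.0156-0.500 kg/ha). Plants are assessed visually against control on a 0-9 scale after 4-5 weeks.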

[4] = tested on: IPOHE (Morningglory, Ivyleaf); test: Preemergence herbicidal evaluation; assay type: in vivo, Ipomoea hederacea; conditions: rated 4-5 weeks after treatment
Method in brief: as §2

ECHCG (Barnyardgrass) = test: Preemergence herbicidal evaluation; assay type: in vivo, Echinochloa crus-galli; conditions: rated 4-5 weeks after treatment
Method in brief: as §2

SETVI (Foxtail, Green) [5] = test: Preemergence herbicidal evaluation; assay type: in vivo, Setaria viridis; conditions: rated 4-5 weeks after treatment
Method in brief: as §2

ZEAMX (Corn, Field) = test: Preemergence herbicidal evaluation; assay type: in vivo, Zea mays; conditions: rated 4-5 weeks after treatment
Method in brief: as §2

[6] = tested on: ECHORC (Watergrass (Calif.)); test: Preemergence weed control under flooded paddy conditions; assay type: in vivo, Echinochloa oryzoides; conditions: rated 3-4 weeks after treatment
Method in brief: (§3)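 Seeds or propagules sown in silt loam kept flooded 1.5-3 cm; compounds in 50/50 acetone/water pipetted into flood water at about 0.0313 to 0.500 kg/ha. Greenhouse; visual 0-9 rating versus untreated control 3-4 weeks after treatment.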

CYPIR (Rice Flatsedge) = test: as above; assay type: in vivo, Cyperus iria; conditions: rated 3-4 weeks after treatment
Method in brief: as §3

MOOVA (Monochoria) = test: as above; assay type: in vivo, Monochoria vaginalis; conditions: rated 3-4 weeks after treatment
Method in brief: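 Greenhouse paddy assay. Acetone/water (50/50 v/v) solutions dosed into flood water, equivalent to about 0.0313 to 0.500 kg/ha active ingredient, over seeds planted 0.5 cm deep in silt loam. Score: 0-9 visual, based on stand, vigor, malformation, size and chlorosis, 3 to 4 weeks after treatment.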

For `Cn1c(C(F)(F)F)cc(=O)n(-c2cc(N=C3SCC(=O)N3CC(=O)OCC3CC3)c(Cl)cc2F)c1=O` [Compound 124, Cyclopropylmethyl 2-{{2-chloro-5-[3,6-dihydro-3-methyl-2,6-dioxo-4-(trifluoromethyl)-1(2H)-pyrimidinyl]-4-fluorophenyl}imino}-4-oxo-3-thiazolidineacetate], the “herbicidal rating GALAP” value (GALAP (Galium); rate 0.0156 kg/ha) was 0.0, the “herbicidal rating GALAP” value (GALAP (Galium); rate 0.0313 kg/ha) was 1.0 and the “herbicidal rating GALAP” value (GALAP (Galium); rate 0.0625 kg/ha) was 6.0. The “herbicidal rating IPOHE” value ([1]; rate 0.0156 kg/ha) was 9.0, the “herbicidal rating IPOHE” value ([1]; rate 0.0313 kg/ha) was 9.0 and the “herbicidal rating IPOHE” value ([1]; rate 0.0625 kg/ha) was 9.0. The “herbicidal rating SETVI” value (SETVI (Foxtail, Green) [2]; rate 0.0156 kg/ha) was 3.0, the “herbicidal rating SETVI” value (SETVI (Foxtail, Green) [2]; rate 0.0313 kg/ha) was 5.0 and the “herbicidal rating SETVI” value (SETVI (Foxtail, Green) [2]; rate 0.0625 kg/ha) was 5.0. For the same compound, the “herbicidal rating TRZAWR” value ([3]; rate 0.0156 kg/ha) was 3.7, the “herbicidal rating TRZAWR” value ([3]; rate 0.0313 kg/ha) was 4.3 and the “herbicidal rating TRZAWR” value ([3]; rate 0.0625 kg/ha) was 5.0. For the same compound, the “Preemergence herbicidal rating ABUTH” value (ABUTH (Velvetleaf); rate 0.0156 kg/ha) was 0.0, the “Preemergence herbicidal rating ABUTH” value (ABUTH (Velvetleaf); rate 0.0313 kg/ha) was 0.0 and the “Preemergence herbicidal rating ABUTH” value (ABUTH (Velvetleaf); rate 0.0625 kg/ha) was 0.0. For the same compound, the “Preemergence herbicidal rating ABUTH” value (ABUTH (Velvetleaf); rate 0.1250 kg/ha) was 2.0, the “Preemergence herbicidal rating ABUTH” value (ABUTH (Velvetleaf); rate 0.2500 kg/ha) was 4.0 and the “Preemergence herbicidal rating ABUTH” value (ABUTH (Velvetleaf); rate 0.5000 kg/ha) was 7.0. For the same compound, the “Preemergence herbicidal rating IPOHE” value ([4]; rate 0.0156 kg/ha) was 0.0, the “Preemergence herbicidal rating IPOHE” value ([4]; rate 0.0313 kg/ha) was 0.0 and the “Preemergence herbicidal rating IPOHE” value ([4]; rate 0.0625 kg/ha) was 0.0. The “Preemergence herbicidal rating IPOHE” value ([4]; rate 0.1250 kg/ha) was 0.0, the “Preemergence herbicidal rating IPOHE” value ([4]; rate 0.2500 kg/ha) was 1.0 and the “Preemergence herbicidal rating IPOHE” value ([4]; rate 0.5000 kg/ha) was 6.0. For the same compound, the “Preemergence herbicidal rating ECHCG” value (ECHCG (Barnyardgrass); rate 0.0156 kg/ha) was 0.0, the “Preemergence herbicidal rating ECHCG” value (ECHCG (Barnyardgrass); rate 0.0313 kg/ha) was 0.0 and the “Preemergence herbicidal rating ECHCG” value (ECHCG (Barnyardgrass); rate 0.0625 kg/ha) was 0.0. For the same compound, the “Preemergence herbicidal rating ECHCG” value (ECHCG (Barnyardgrass); rate 0.1250 kg/ha) was 0.0, the “Preemergence herbicidal rating ECHCG” value (ECHCG (Barnyardgrass); rate 0.2500 kg/ha) was 0.0 and the “Preemergence herbicidal rating ECHCG” value (ECHCG (Barnyardgrass); rate 0.5000 kg/ha) was 1.0. The “Preemergence herbicidal rating SETVI” value (SETVI (Foxtail, Green) [5]; rate 0.0156 kg/ha) was 0.0, the “Preemergence herbicidal rating SETVI” value (SETVI (Foxtail, Green) [5]; rate 0.0313 kg/ha) was 0.0 and the “Preemergence herbicidal rating SETVI” value (SETVI (Foxtail, Green) [5]; rate 0.0625 kg/ha) was 0.0. The “Preemergence herbicidal rating SETVI” value (SETVI (Foxtail, Green) [5]; rate 0.1250 kg/ha) was 0.0, the “Preemergence herbicidal rating SETVI” value (SETVI (Foxtail, Green) [5]; rate 0.2500 kg/ha) was 4.0 and the “Preemergence herbicidal rating SETVI” value (SETVI (Foxtail, Green) [5]; rate 0.5000 kg/ha) was 9.0. The “Preemergence herbicidal rating ZEAMX” value (ZEAMX (Corn, Field); rate 0.0156 kg/ha) was 0.0, the “Preemergence herbicidal rating ZEAMX” value (ZEAMX (Corn, Field); rate 0.0313 kg/ha) was 0.0 and the “Preemergence herbicidal rating ZEAMX” value (ZEAMX (Corn, Field); rate 0.0625 kg/ha) was 0.0. The “Preemergence herbicidal rating ZEAMX” value (ZEAMX (Corn, Field); rate 0.1250 kg/ha) was 0.0, the “Preemergence herbicidal rating ZEAMX” value (ZEAMX (Corn, Field); rate 0.2500 kg/ha) was 0.0 and the “Preemergence herbicidal rating ZEAMX” value (ZEAMX (Corn, Field); rate 0.5000 kg/ha) was 1.0. For the same compound, the “herbicidal effect rating, ECHORC” value ([6]; 0.0313 kg/ha) was 5.0, the “herbicidal effect rating, ECHORC” value ([6]; 0.0625 kg/ha) was 5.0 and the “herbicidal effect rating, ECHORC” value ([6]; 0.1250 kg/ha) was 9.0. The “herbicidal effect rating, ECHORC” value ([6]; 0.2500 kg/ha) was 8.0, the “herbicidal effect rating, CYPIR” value (CYPIR (Rice Flatsedge); 0.0313 kg/ha) was 0.0 and the “herbicidal effect rating, CYPIR” value (CYPIR (Rice Flatsedge); 0.0625 kg/ha) was 0.0. For the same compound, the “herbicidal effect rating, CYPIR” value (CYPIR (Rice Flatsedge); 0.1250 kg/ha) was 0.0, the “herbicidal effect rating, CYPIR” value (CYPIR (Rice Flatsedge); 0.2500 kg/ha) was 6.0 and the “herbicidal effect rating, MOOVA” value (MOOVA (Monochoria); 0.0313 kg/ha) was 0.0. For the same compound, the “herbicidal effect rating, MOOVA” value (MOOVA (Monochoria); 0.0625 kg/ha) was 0.0, the “herbicidal effect rating, MOOVA” value (MOOVA (Monochoria); 0.1250 kg/ha) was 0.0 and the “herbicidal effect rating, MOOVA” value (MOOVA (Monochoria); 0.2500 kg/ha) was 7.0.
In the case of `Cn1c(C(F)(F)F)cc(=O)n(-c2cc(N=C3SCC(=O)N3CC(F)(F)F)c(Cl)cc2F)c1=O` [Compound 163, 3-{4-Chloro-2-fluoro-5-{[4-oxo-3-(2,2,2-trifluoroethyl)-2-thiazolidinylidene]amino}phenyl}-1-methyl-6-(trifluoromethyl)-2,4(1H,3H)-pyrimidinedione], the “herbicidal rating GALAP” value (GALAP (Galium); rate 0.0156 kg/ha) is reported as 0.0, the “herbicidal rating GALAP” value (GALAP (Galium); rate 0.0313 kg/ha) is reported as 3.0 and the “herbicidal rating GALAP” value (GALAP (Galium); rate 0.0625 kg/ha) is reported as 5.0. The “herbicidal rating IPOHE” value ([1]; rate 0.0156 kg/ha) was 9.0, the “herbicidal rating IPOHE” value ([1]; rate 0.0313 kg/ha) was 9.0 and the “herbicidal rating IPOHE” value ([1]; rate 0.0625 kg/ha) was 9.0. The “herbicidal rating SETVI” value (SETVI (Foxtail, Green) [2]; rate 0.0156 kg/ha) was 0.0, the “herbicidal rating SETVI” value (SETVI (Foxtail, Green) [2]; rate 0.0625 kg/ha) was 3.0 and the “herbicidal rating TRZAWR” value ([3]; rate 0.0156 kg/ha) was 3.5. The “herbicidal rating TRZAWR” value ([3]; rate 0.0313 kg/ha) was 4.0, the “herbicidal rating TRZAWR” value ([3]; rate 0.0625 kg/ha) was 4.5 and the “Preemergence herbicidal rating ABUTH” value (ABUTH (Velvetleaf); 0.0156 kg/ha) was 9.0. For the same compound, the “Preemergence herbicidal rating ABUTH” value (ABUTH (Velvetleaf); 0.0313 kg/ha) was 9.0, the “Preemergence herbicidal rating ABUTH” value (ABUTH (Velvetleaf); 0.0625 kg/ha) was 9.0 and the “Preemergence herbicidal rating ABUTH” value (ABUTH (Velvetleaf); 0.1250 kg/ha) was 9.0. For the same compound, the “Preemergence herbicidal rating ABUTH” value (ABUTH (Velvetleaf); 0.2500 kg/ha) was 9.0, the “Preemergence herbicidal rating IPOHE” value ([4]; 0.0156 kg/ha) was 0.0 and the “Preemergence herbicidal rating IPOHE” value ([4]; 0.0313 kg/ha) was 0.0. For the same compound, the “Preemergence herbicidal rating IPOHE” value ([4]; 0.0625 kg/ha) was 3.0, the “Preemergence herbicidal rating IPOHE” value ([4]; 0.1250 kg/ha) was 9.0 and the “Preemergence herbicidal rating IPOHE” value ([4]; 0.2500 kg/ha) was 9.0. For the same compound, the “Preemergence herbicidal rating ECHCG” value (ECHCG (Barnyardgrass); 0.0156 kg/ha) was 2.0, the “Preemergence herbicidal rating ECHCG” value (ECHCG (Barnyardgrass); 0.0313 kg/ha) was 4.0 and the “Preemergence herbicidal rating ECHCG” value (ECHCG (Barnyardgrass); 0.0625 kg/ha) was 7.0. For the same compound, the “Preemergence herbicidal rating ECHCG” value (ECHCG (Barnyardgrass); 0.1250 kg/ha) was 8.0, the “Preemergence herbicidal rating ECHCG” value (ECHCG (Barnyardgrass); 0.2500 kg/ha) was 9.0 and the “Preemergence herbicidal rating SETVI” value (SETVI (Foxtail, Green) [5]; 0.0156 kg/ha) was 9.0. The “Preemergence herbicidal rating SETVI” value (SETVI (Foxtail, Green) [5]; 0.0313 kg/ha) was 9.0, the “Preemergence herbicidal rating SETVI” value (SETVI (Foxtail, Green) [5]; 0.0625 kg/ha) was 9.0 and the “Preemergence herbicidal rating SETVI” value (SETVI (Foxtail, Green) [5]; 0.1250 kg/ha) was 9.0. For the same compound, the “Preemergence herbicidal rating SETVI” value (SETVI (Foxtail, Green) [5]; 0.2500 kg/ha) was 9.0, the “Preemergence herbicidal rating ZEAMX” value (ZEAMX (Corn, Field); 0.0156 kg/ha) was 5.0 and the “Preemergence herbicidal rating ZEAMX” value (ZEAMX (Corn, Field); 0.0313 kg/ha) was 5.0. For the same compound, the “Preemergence herbicidal rating ZEAMX” value (ZEAMX (Corn, Field); 0.0625 kg/ha) was 7.0, the “Preemergence herbicidal rating ZEAMX” value (ZEAMX (Corn, Field); 0.1250 kg/ha) was 7.0 and the “Preemergence herbicidal rating ZEAMX” value (ZEAMX (Corn, Field); 0.2500 kg/ha) was 8.0. The “herbicidal effect rating, ECHORC” value ([6]; 0.0313 kg/ha) was 9.0, the “herbicidal effect rating, ECHORC” value ([6]; 0.0625 kg/ha) was 9.0 and the “herbicidal effect rating, ECHORC” value ([6]; 0.1250 kg/ha) was 9.0. The “herbicidal effect rating, ECHORC” value ([6]; 0.2500 kg/ha) was 9.0, the “herbicidal effect rating, CYPIR” value (CYPIR (Rice Flatsedge); 0.0313 kg/ha) was 6.0 and the “herbicidal effect rating, CYPIR” value (CYPIR (Rice Flatsedge); 0.0625 kg/ha) was 7.0. The “herbicidal effect rating, CYPIR” value (CYPIR (Rice Flatsedge); 0.1250 kg/ha) was 9.0, the “herbicidal effect rating, CYPIR” value (CYPIR (Rice Flatsedge); 0.2500 kg/ha) was 9.0 and the “herbicidal effect rating, MOOVA” value (MOOVA (Monochoria); 0.0313 kg/ha) was 9.0. The “herbicidal effect rating, MOOVA” value (MOOVA (Monochoria); 0.0625 kg/ha) was 9.0, the “herbicidal effect rating, MOOVA” value (MOOVA (Monochoria); 0.1250 kg/ha) was 9.0 and the “herbicidal effect rating, MOOVA” value (MOOVA (Monochoria); 0.2500 kg/ha) was 9.0.
